Results on 1 compound are retold here after ChEMBL document CHEMBL5226385, “The Antiangiogenic and Antitumor Effects of Scoparasin B in Non-Small-Cell Lung Cancer” (J Nat Prod, 2023).

Data set [1] concerns HMEC-1. Kind of data set: Inhibition of VEGF-A secretion in human HMEC-1 cells incubated for 36 hrs by ELISA. In kind it is functional, cell-based. As to conditions: dose 5-15 nM. (In an ELISA, binding on a coated surface is turned into a signal by an enzyme label.)
In data set [2] the test system is NCI-H1299. Put plainly: Downregulation of MMP9 protein expression in human NCI-H1299 cells at 5 to 15 nM incubated for 24 hrs by western blot analysis. In kind it is functional, cell-based. To be noted: dose 5-15 nM. For orientation: In western blotting, separated proteins are transferred to a membrane and probed.
The test system of data set [3] is HUVEC. Kind of data set: Antiangiogenic activity against human HUVEC cells assessed as inhibition of cell migration measured after 8 hrs by scratch wound healing assay. Format: functional, cell-based. As to conditions: dose 5-15 nM.
Data set [4] is described as follows: Toxicity against BALB/c nude mouse xenografted with human NCI-H1299 cells assessed as change in body weight at 0.75 to 1.5 mg/kg, ip administered every other day for 20 days. Format: organism-based. As to conditions: in vivo, 480 h, dose 0.75-1.5 mg/kg, time 20 day.
In data set [5] the test system is HUVEC. Put plainly: Cytotoxicity against human HUVEC cells assessed as reduction in cell proliferation upto 25 nM measured after 48 hrs by CCK8 assay. As to conditions: 0.025 µM. Format: toxicity, cell-based.

The structures appear in SMILES notation. Activity calls are given as the source filed them. The calls are words filed in the database; no cut-off is given here.

Take `COc1ccc(C[C@@H]2NC(=O)[C@@]34OC(=O)O/C=C/[C@@](C)(O)C(=O)[C@@H](C)C/C=C/[C@H]3[C@H](O)[C@](C)(O)[C@@H](C)[C@@H]24)cc1` [SCOPARASIN B]: the inhibition result in data set [1] is “Dose-Dependent Effect”. The inhibition entry in data set [2] is “Active”. The Activity entry was “Dose-Dependent Effect” in data set [3], “Non-Toxic” in data set [4] and “Non-Toxic” in data set [5].
